Structures can show the parent of a compound that is named as a salt.

Results on 24 molecules are retold here after patent US9662310B2, “Cyclopropanecarboxylic acid derivative” (DAIICHI SANKYO COMPANY, LIMITED, priority 2010, dated 2017).

The test deals with TAFIa (Homo sapiens (Human), UniProt Q96IY4). Kind of test: Determination of TAFIa enzyme inhibitory activity (FAAK substrate degradation). It is filed as biochemical. The following applies: TAFI activated with human thrombin / rabbit lung thrombomodulin; substrate FAAK, absorbance at 330 nm; read-out: TAFIa IC50. On the procedure: Determination of TAFIa Enzyme Inhibitory Activity
Sequence of TAFIa (Q96IY4 115-423): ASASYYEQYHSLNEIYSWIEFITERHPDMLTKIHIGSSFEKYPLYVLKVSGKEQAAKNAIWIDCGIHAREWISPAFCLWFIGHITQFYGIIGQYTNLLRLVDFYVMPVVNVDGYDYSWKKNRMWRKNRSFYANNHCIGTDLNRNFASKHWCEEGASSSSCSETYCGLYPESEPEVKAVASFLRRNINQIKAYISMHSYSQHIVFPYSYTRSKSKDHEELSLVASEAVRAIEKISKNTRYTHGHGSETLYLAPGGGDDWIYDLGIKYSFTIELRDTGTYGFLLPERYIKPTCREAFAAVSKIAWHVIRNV
HEPES buffered saline (20 mM HEPES, 150 mM NaCl, pH 7.4; hereinafter, referred to as HBS) was used in the preparation of a reaction solution. To 12 μL of a 250 μg/mL TAFI solution, 30 μL of an HBS solution containing 4 U/mL human thrombin, 12 U/mL rabbit lung thrombomodulin, and 12 mM CaCl2 was added, and the mixture was gently stirred. Then, TAFI was activated at room temperature. Ten minutes later, thrombin was neutralized by the addition of 10 μL of 100 μM PPACK (thrombin inhibitor) to terminate the activation of TAFI. The formed TAFIa was stored in ice and diluted immediately before use in determination with 2050 μL of an HBS solution containing BSA (bovine serum albumin) adjusted to 0.1% in terms of the final concentration.
(2) Determination of TAFIa Inhibitory Activity
A test substance was dissolved in HBS to prepare a 10-fold dilution series of evaluation concentrations. 80 μL of the TAFIa solution and 10 μL of the test substance were added to each well of a 96-well plate and mixed by shaking for 10 minutes. 10 μL of furylacryloyl-alanyl-lysine (FAAK) adjusted to 5 mg/mL was added to each well, and the change in the absorbance of this mixed solution at 330 nm was read for 30 minutes to determine the degradation rate of the substrate.
(3) Calculation of Inhibitory Activity IC50
The degradation rate of the substrate in each well was applied to a standard curve prepared using the dilution series of the TAFIa solution to calculate TAFIa activity.
Turning to `CCCn1cnc([C@@]2(C(=O)O)C[C@@H]2CCCN)c1` (relative stereo) [Example 3, (1R*,2S*)-2-(3-Aminopropyl)-1-(1-propyl-1H-imidazol-4-yl)cyclopropanecarboxylic acid], the IC50 is 97 nM.

Consider `NCCC[C@H]1C[C@]1(C(=O)O)c1cn(C2CCCCC2)cn1` (relative stereo) [Example 4, (1R*,2S*)-2-(3-Aminopropyl)-1-(1-cyclohexyl-1H-imidazol-4-yl)cyclopropanecarboxylic acid], for which the IC50 is 29 nM.

For the molecule `C[C@H]1CC[C@H](n2cnc([C@@]3(C(=O)O)C[C@@H]3CCCN)c2)CC1` (relative stereo) [Example 5, (1R*,2S*)-2-(3-Aminopropyl)-1-[1-(trans-4-methylcyclohexyl)-1H-imidazol-4-yl]cyclopropanecarboxylic acid], the IC50 turned out to be 14 nM.

In the case of `NCCC[C@H]1C[C@]1(C(=O)O)c1cn(-c2ccccc2)cn1` (relative stereo) [Example 6, (1R*,2S*)-2-(3-Aminopropyl)-1-(1-phenyl-1H-imidazol-4-yl)cyclopropanecarboxylic acid], the IC50 is 27 nM.

On to `Cc1ccc(-n2cnc([C@@]3(C(=O)O)C[C@@H]3CCCN)c2)cc1` (relative stereo) [Example 7, (1R*,2S*)-2-(3-Aminopropyl)-1-[1-(4-methylphenyl)-1H-imidazol-4-yl]cyclopropanecarboxylic acid], for which the 50% inhibitory concentration (IC50) amounted to 16 nM.

In the case of `Cc1cccc(-n2cnc([C@@]3(C(=O)O)C[C@@H]3CCCN)c2)c1` (relative stereo) [Example 8, (1R*,2S*)-2-(3-Aminopropyl)-1-[1-(3-methylphenyl)-1H-imidazol-4-yl]cyclopropanecarboxylic acid], the IC50 came to 37 nM.

`Cc1ccccc1-n1cnc([C@@]2(C(=O)O)C[C@@H]2CCCN)c1` (relative stereo) [Example 9, (1R*,2S*)-2-(3-Aminopropyl)-1-[1-(2-methylphenyl)-1H-imidazol-4-yl]cyclopropanecarboxylic acid]: the IC50 is above 300 nM.

For the molecule `Cc1ccc(-n2cnc([C@@]3(C(=O)O)C[C@@H]3CCCN)c2)cc1C` (relative stereo) [Example 10, (1R*,2S*)-2-(3-Aminopropyl)-1-[1-(3,4-dimethylphenyl)-1H-imidazol-4-yl]cyclopropanecarboxylic acid], the IC50 was determined as 42 nM.

Turning to `CCc1ccc(-n2cnc([C@@]3(C(=O)O)C[C@@H]3CCCN)c2)cc1` (relative stereo) [Example 11, (1R*,2S*)-2-(3-Aminopropyl)-1-[1-(4-ethylphenyl)-1H-imidazol-4-yl]cyclopropanecarboxylic acid], the IC50 was found to be 31 nM.

In the case of `COc1ccc(-n2cnc([C@@]3(C(=O)O)C[C@@H]3CCCN)c2)cc1` (relative stereo) [Example 12, (1R*,2S*)-2-(3-Aminopropyl)-1-[1-(4-methoxyphenyl)-1H-imidazol-4-yl]cyclopropanecarboxylic acid], the IC50 is 36 nM.

For the molecule `NCCC[C@H]1C[C@]1(C(=O)O)c1cn(-c2ccc(C(F)(F)F)cc2)cn1` (relative stereo) [Example 13, (1R*,2S*)-2-(3-Aminopropyl)-1-{1-[4-(trifluoromethyl)phenyl]-1H-imidazol-4-yl}cyclopropanecarboxylic acid], the IC50 was 140 nM.

With `NCCC[C@H]1C[C@]1(C(=O)O)c1cn(/C=C/c2ccccc2)cn1` (relative stereo) [Example 14, (1R*,2S*)-2-(3-Aminopropyl)-1-{1-[(E)-2-phenylvinyl]-1H-imidazol-4-yl}cyclopropanecarboxylic acid], the IC50 is 99 nM.

Regarding `NCCC[C@H]1C[C@]1(C(=O)O)c1cn(-c2ccc(F)cc2)cn1` (relative stereo) [Example 15, (1R*,2S*)-2-(3-Aminopropyl)-1-[1-(4-fluorophenyl)-1H-imidazol-4-yl]cyclopropanecarboxylic acid], the IC50 was found to be 21 nM.

Turning to `NCCC[C@H]1C[C@]1(C(=O)O)c1cn(-c2ccc(Oc3ccccc3)cc2)cn1` (relative stereo) [Example 16, (1R*,2S*)-2-(3-Aminopropyl)-1-[1-(4-phenoxyphenyl)-1H-imidazol-4-yl]cyclopropanecarboxylic acid], the IC50 came out at 52 nM.

With `NCCC[C@H]1C[C@]1(C(=O)O)c1cn(-c2ccc(F)c(F)c2)cn1` (relative stereo) [Example 17, (1R*,2S*)-2-(3-Aminopropyl)-1-[1-(3,4-difluorophenyl)-1H-imidazol-4-yl]cyclopropanecarboxylic acid], the IC50 was found to be 61 nM.

On to `NCCC[C@H]1C[C@]1(C(=O)O)c1cn(-c2ccc(Cl)cc2)cn1` (relative stereo) [Example 18, (1R*,2S*)-2-(3-Aminopropyl)-1-[1-(4-chlorophenyl)-1H-imidazol-4-yl]cyclopropanecarboxylic acid], for which the IC50 is 25 nM.

Turning to `NCCC[C@H]1C[C@]1(C(=O)O)c1cn(-c2cccc(Cl)c2)cn1` (relative stereo) [Example 19, (1R*,2S*)-2-(3-Aminopropyl)-1-[1-(3-chlorophenyl)-1H-imidazol-4-yl]cyclopropanecarboxylic acid], the half-inhibitory concentration (IC50) worked out at 70 nM.

With `NCCC[C@H]1C[C@]1(C(=O)O)c1cn(-c2ccccc2Cl)cn1` (relative stereo) [Example 20, (1R*,2S*)-2-(3-Aminopropyl)-1-[1-(2-chlorophenyl)-1H-imidazol-4-yl]cyclopropanecarboxylic acid hydrochloride], the IC50 worked out at 140 nM.

Consider `NCCC[C@H]1C[C@]1(C(=O)O)c1cn(-c2ccc3ccccc3c2)cn1` (relative stereo) [Example 21, (1R*,2S*)-2-(3-Aminopropyl)-1-[1-(2-naphthyl)-1H-imidazol-4-yl]cyclopropanecarboxylic acid], for which the IC50 was 27 nM.

Regarding `NCCC[C@H]1C[C@]1(C(=O)O)c1cn(-c2cccc(F)c2)cn1` (relative stereo) [Example 22, (1R*,2S*)-2-(3-Aminopropyl)-1-[1-(3-fluorophenyl)-1H-imidazol-4-yl]cyclopropanecarboxylic acid], the IC50 was 40 nM.

On to `NCCC[C@H]1C[C@]1(C(=O)O)c1cn(-c2ccncc2)cn1` (relative stereo) [Example 23, (1R*,2S*)-2-(3-Aminopropyl)-1-(1-pyridin-4-yl-1H-imidazol-4-yl)cyclopropanecarboxylic acid hydrochloride], for which the IC50 turned out to be 170 nM.

Consider `NCCC[C@H]1C[C@]1(C(=O)O)c1cn(-c2cccnc2)cn1` (relative stereo) [Example 24, (1R*,2S*)-2-(3-Aminopropyl)-1-(1-pyridin-3-yl-1H-imidazol-4-yl)cyclopropanecarboxylic acid], for which the IC50 was 98 nM.

In the case of `NCCC[C@H]1C[C@]1(C(=O)O)c1cn(-c2ccccn2)cn1` (relative stereo) [Example 25, (1R*,2S*)-2-(3-Aminopropyl)-1-(1-pyridin-2-yl-1H-imidazol-4-yl)cyclopropanecarboxylic acid], the IC50 worked out at 29 nM.

Regarding `CCOC(=O)[C@]1(c2cn(-c3ccc(C)cc3)cn2)C[C@@H]1CCCN` (relative stereo) [Example 26, Ethyl (1R*,2S*)-2-(3-aminopropyl)-1-[1-(4-methylphenyl)-1H-imidazol-4-yl]cyclopropanecarboxylate hydrochloride], the IC50 was determined as 10000 nM.

For orientation: IC50 means the midpoint of a concentration-inhibition curve.
